From paper PMC8400257, “2-Phenoxy-3-Trichloromethylquinoxalines Are Antiplasmodial Derivatives with Activity against the Apicoplast of Plasmodium falciparum” (Pharmaceuticals, 2021)
Entries after “also recorded” stand apart in the source; their conditions may differ.

Legend:
[1] = tested on: F32-ART5 and F32-TEM parasites; assay: Recrudescence assay; format: cell-based, Plasmodium falciparum; conditions: 48 h exposure; 2.5 µM 3i or 18 µM ART; log-rank Mantel-Cox test
Experimental: Recrudescence assay was performed to evaluate the ability of the F32-ART5 parasites to survive drug exposure comparatively to the F32-TEM parasites. D-sorbitol synchronized ring-stages at 3% parasitemia (2% hematocrit) were exposed to drug for 48 h. After drug exposure, parasite cultures were washed with RPMI-1640 medium and replaced in normal drug-free culture conditions. The time to parasite recrudescence was determined as the time required to reach the 3% initial parasitemia. […] Each experiment was performed for F32-ART5 and F32-TEM and cultivated in parallel in the same conditions to generate paired results. This was carried out at least three times independently. A statistical analysis (log-rank Mantel–Cox test) was carried out on data thanks to a Kaplan–Meier survival analysis (using GraphPad Prism software) considering censored data.
Figure S48. 13C NMR spectrum of 2i in CDCl3, on a Bruker ARX 101 spectrometer
2. […]
3. Studying the effect of (3i) on the liver stage development of P. falciparum Cryopreserved primary human hepatocytes were seeded in 96 well plates with a pre-determined seeding dose that gave a single dense layer of attached hepatocytes. […]
The culture medium with or without drugs was refreshed every 48 hours and two independent plates were studied. […] Plates were subjected to quantification using an automated plate scanner. […]

[2] = tested on: S. typhimurium strains (TA97a, TA98, TA100, TA102); assay: Ames test; format: cell-based, Salmonella typhimurium; conditions: 48 h; 5 mM and 25 mM, w/o and w/ S9 mix; four S. typhimurium strains
Experimental: Nevertheless, the evaluation of the mutagenicity of compound (3i) was carried out using the Ames test on four S. typhimurium strains at 5 mM and 25 mM (four doses per concentrations: 2, 3, 4, 5 µL/plate for assay without S9 mix and 4, 6, 8, 10 µL/plate for assay with S9 mix).
Compounds were assessed for mutagenicity by a modified version of the liquid incubation assay of the classical Ames test at five concentrations (25–125 nM). Salmonella tester strains (TA97a: Acridine ICR191, TA98: 2,4,7 trinitrofluorenone, TA100: Sodium Azide and TA102: Mitomycine C) as positive control w/o S9 mix and benzo[alpha]pyrene as positive control w/S9 mix) were grown overnight in a nutrient broth n_2 (Oxoid, Dardilly, France). After this period, products dissolved in DMSO (Sigma) were added to 0.1 mL of culture and incubated for 1 h at 37 °C with shaking. Each sample was assayed in duplicate. After incubation, 2 mL of molten top agar were mixed gently with the pre-incubated solution and poured onto Vogel–Bonner minimal agar plates. After 48 h at 37 °C, the number of spontaneous and drug-induced revertants per plate was determined for each dose with a laser bacterial colony counter (laser bacterial colony counter 500A, Interscience). A product was considered mutagenic when it induced a two-fold increase in the number of revertants, compared with the spontaneous frequency (negative control). […]

[3] = tested on: K1 chloroquine and pyrimethamine-resistant P. falciparum strain; assay: In vitro antiplasmodial evaluation (SYBR Green I); format: cell-based, Plasmodium falciparum
Experimental: For all molecules, the selectivity index was calculated as following SI = CC50/EC50.
It was maintained in continuous culture, as described previously by Trager and Jensen. Cultures were maintained in fresh A+ human erythrocytes at 2.5% hematocrit in complete medium (RPMI 1640 with 25 mM HEPES, 25 mM NaHCO3, 10% of A+ human serum) at 37 °C under reduced O2 atmosphere (gas mixture 10% O2, 5% CO2, and 85% N2). Parasitemia was maintained daily between 1 and 3%. The P. falciparum drug susceptibility test was carried out by comparing quantities of DNA in treated and control cultures of parasite in human erythrocytes according to an SYBR Green I fluorescence-based method using a 96-well fluorescence plate reader. Compounds, previously dissolved in DMSO (final concentration less than 0.5% v/v), were incubated in a total assay volume of 200 μL (RPMI, 2% hematocrit and 0.4% parasitemia) for 72 h in a humidified atmosphere (10% O2 and 5% CO2) at 37 °C, in 96-well flat bottom plates. Duplicate assays were performed for each sample. After incubation, plates were frozen at […] for 24 h. Then, the frozen plates were thawed for 1 h at 37 °C. Fifteen µL of each sample were transferred to 96-well flat bottom non-sterile black plates (Greiner Bio-one, Kremsmünster, Austria), already containing 15 µL of the SYBR Green I lysis buffer (2X SYBR Green I, 20 mM Tris base pH 7.5, 20 mM EDTA, 0.008% w/v saponin, 0.08% w/v Triton X-100). […] Plates were incubated for 15 min at 37 °C and then read on a TECAN Infinite F-200 spectrophotometer with excitation and emission wavelengths at 485 and 535 nm, respectively.

## O=[N+]([O-])c1ccc(Oc2nc3ccccc3nc2C(Cl)(Cl)Cl)cc1 [3i, 2-(4-Nitrophenoxy)-3-trichloromethylquinoxaline]
[1]
  Recrudescence of F32-ART5 compared with F32-TEM after drug exposure: faster recrudescence
[2]
  Ames test result (mutagenicity): not genotoxic; also recorded: not mutagenic in vitro; also recorded: negative
[3]; Plasmodium falciparum, K1, 72 h, K1 strain, 72 h incubation, three independent experiments, read-out: EC50 PfK1 (µM) ± SD
  EC50: 0.2 ± 0.04 µM
[3]; SI = CC50 HepG2/EC50 PfK1
  SI (selectivity index): 160.0
